We go through 8 molecules from PubChem BioAssay (NCI).

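Cells were grown in 96-well plates and exposed to each compound for 48 hours at five concentrations; endpoints were interpolated linearly between bracketing concentrations, or set to the highest concentration if not reached. Abbreviation: GI50, concentration required for 50% inhibition of growth. The concentration for full growth arrest is given as TGI.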 Where only a bound is given, the exact number is not on record here.

Holding throughout (assay): growth of human tumour cells (NCI), 48 h
Assay [1] concerns SR leukemia.
Assay [2] deals with SK-MEL-5 melanoma.
The test system of assay [3] is RPMI-8226 leukemia.
For assay [4], the system named is HL-60(TB) leukemia.
Assay [5] concerns KM12 colon.
In assay [6] the test system is MDA-MB-435.
The subject of assay [7] is T-47D breast.
In assay [8] the test system is HCT-116 colon.
Assay [9] concerns SW-620 colon.
Assay [10] concerns MCF7 breast.

As for `O=C(O)[C@@H]1C2CC([C@@H]1C(=O)O)[C@H](N1C(=O)CCC1=O)[C@@H]2Br` (stereo not given in full), the TGI in assay [1], in [2], in [3], in assay [4], in assay [5] and in assay [6] was more than 100 µM in each case. Moreover, the TGI in [7], in assay [8] and in assay [9] was more than 100 µM each time.

Take `COc1ccc2c(c1)CCC1C2CCC2(C)C1CCC2(O)CNC(=O)CCCCC1CCSS1` (stereo not given): the GI50 in [10] is 10.3 µM; in assay [2], 7.15 µM; in assay [3], 2.43 µM; in assay [5] it was 2.26 µM; in assay [6] it was 7.83 µM; in assay [7] it was 3.27 µM. Also, the GI50 was 9.3 µM in assay [8] and 12.4 µM in assay [9]. Further, the TGI in assay [10] is 40.8 µM; in [2], more than 100 µM; in assay [3] it was 9.48 µM; in assay [5], more than 100 µM; in assay [6], more than 100 µM; in assay [7] it was 28.9 µM. Besides, the TGI in assay [8] and in [9] was more than 100 µM throughout.

Regarding `COc1cccc(OC(=O)c2ccccc2Nc2ccnc(C(F)(F)F)c2)c1`, the GI50 in assay [10] is 7.29 µM; in assay [2], 2.23 µM; in assay [3], 1.01 µM; in [4] it was 2.15 µM; in [7], 50.5 µM; in assay [8], 1.12 µM. Moreover, the GI50 in assay [9] was 4.37 µM. For the same molecule, the TGI is more than 100 µM in assay [10]; 3.86 µM in assay [3]; 15.2 µM in [4]; more than 100 µM in assay [7]; 3.07 µM in assay [8]; more than 100 µM in [9].

As to `CCN1C(=O)N(CC)C2C1NN=c1s/c(=C3\C(=O)N(C(C)C)c4ccccc43)c(=O)n12` (stereo not given), the GI50 in assay [1] was 0.426 µM; in [10], 0.396 µM; in [2], 0.394 µM; in [3], 0.429 µM; in assay [4], 0.24 µM; in assay [5], 0.384 µM. Besides, the figures for the GI50 in assay [6], in [8] and in assay [9] were 0.192 µM, 0.377 µM and 0.417 µM, respectively. The TGI was more than 100 µM in assay [1]; more than 100 µM in [10]; 2.33 µM in [2]; more than 100 µM in assay [3]; 0.63 µM in assay [4]; more than 100 µM in assay [5]. Besides, the TGI was 0.487 µM in [6], more than 100 µM in assay [8] and more than 100 µM in assay [9].

Turning to `Cc1ccc(C(=O)Nc2ccc(S(=O)(=O)O)c3cc(S(=O)(=O)O)cc(S(=O)(=O)O)c23)cc1NC(=O)c1cccc(N)c1`, the TGI in assay [1], in assay [10], in [2], in assay [4], in assay [5] and in [7] was more than 100 µM in each case. Further, the TGI in assay [9] is more than 100 µM.

In the case of `COc1ccc(Cn2nc(-c3cc(OC)c(OC)c(OC)c3)c3c2CCc2cnoc2-3)cc1OC`, the GI50 was 2.67 µM in assay [1]; 3.45 µM in assay [10]; 2.78 µM in assay [2]; 2.69 µM in assay [3]; 0.113 µM in assay [4]; 3.89 µM in assay [5]. In addition, the figures for the GI50 in assay [7], in assay [8] and in [9] were 4.16 µM, 3.63 µM and 3.98 µM, respectively. The TGI in assay [1] is more than 100 µM; in assay [10] it was 18.3 µM; in assay [2], 12 µM; in assay [3], 23 µM; in [4] it was 2.28 µM; in assay [5] it was 37.6 µM. The TGI in assay [7] is 39.9 µM; in [8], 44 µM; in assay [9] it was more than 100 µM.

With `COc1cc2c(cc1OC)-c1ccc3cc4c(cc3c1N(CCN1CCCC1)C2)OCO4`, the GI50 in assay [1] was 0.0696 µM; in [2], 1.48 µM; in assay [3], 0.224 µM; in assay [4], 0.882 µM; in assay [5], 0.538 µM; in assay [6] it was 1.36 µM. In addition, the GI50 in assay [7] was 0.361 µM; in assay [8], 0.477 µM; in assay [9] it was 0.472 µM. The TGI in assay [1] is 1.23 µM; in assay [2], 3.09 µM; in assay [3], 0.723 µM; in assay [4], 2.7 µM; in [5] it was 1.99 µM; in assay [6], 6.13 µM. The figures for the TGI in [7], in assay [8] and in assay [9] were 2.28 µM, 1.76 µM and 2.28 µM, respectively.

For the molecule `Cc1ccc2[nH]c(C(=O)NN3C(=O)CSC34CCCCC4C)c(-c3ccccc3)c2c1` (stereo not given), the GI50 in assay [10] was 14.9 µM; in assay [2], 15.1 µM; in [3] it was 13.8 µM; in assay [5], 14.9 µM; in assay [6] it was 17.9 µM; in assay [7], 16.3 µM. Also, the GI50 is 14.5 µM in assay [8] and 23.8 µM in [9]. In addition, the TGI was determined as 39.2 µM in [10]; 31.3 µM in assay [2]; 35.2 µM in assay [3]; 34.7 µM in [5]; 34.7 µM in assay [6]; 40 µM in assay [7]. Moreover, the figures for the TGI in assay [8] and in assay [9] were 34.2 µM and 60.1 µM, respectively.
